Results on nine compounds are retold here after PubChem BioAssay (NCI).

Among the test systems are COLO 205 colon; HCC-2998 colon; HCT-15 colon; MALME-3M melanoma; NCI-H460 lung; OVCAR-3 ovarian; RXF 393 renal; SK-OV-3 ovarian; EKVX NSCLC.
Holding throughout (test): NCI-60 cell line screen, 48 h

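Step 1: Grow cells in 96-well plates. Step 2: Expose to compound for 48 hours at 5 concentrations. Step 3: Interpolate endpoints linearly; if unreached, use highest concentration. GI50 marks 50% less growth. TGI denotes the concentration required for complete inhibition of growth.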

Regarding `COc1ccc2ccc([Se]c3ccc4ccc(OC)cc4c3)cc2c1`, the TGI with COLO 205 colon, in the assay with HCC-2998 colon, in the assay on HCT-15 colon, with MALME-3M melanoma, in the assay with NCI-H460 lung and with OVCAR-3 ovarian was greater than 100 µM in each case. Also, the TGI in the assay with RXF 393 renal and in the assay with SK-OV-3 ovarian was greater than 100 µM each time.
As for `O=c1cc(-c2ccccc2)nc2n1CCN2Cc1ccccc1`, the GI50 in the assay on COLO 205 colon was 26.1 µM; with EKVX NSCLC, 30.5 µM; in the assay with HCT-15 colon, 31.2 µM; with NCI-H460 lung, 36 µM; with OVCAR-3 ovarian, 27.3 µM; with RXF 393 renal it was 46.2 µM. In the assay on SK-OV-3 ovarian, the GI50 was 51.3 µM. For the same compound, the TGI was 68.1 µM with COLO 205 colon; 96.1 µM in the assay on EKVX NSCLC; greater than 100 µM in the assay on HCT-15 colon; greater than 100 µM in the assay with NCI-H460 lung; 99.6 µM in the assay with OVCAR-3 ovarian; greater than 100 µM with RXF 393 renal. In the assay with SK-OV-3 ovarian, this compound gave a TGI greater than 100 µM.
Turning to `CC1NOC(=O)C1N=Nc1ccccc1Cl` (stereo not given), the TGI is greater than 100 µM with COLO 205 colon; greater than 100 µM with EKVX NSCLC; greater than 100 µM with HCC-2998 colon; 65.7 µM in the assay with MALME-3M melanoma; greater than 100 µM in the assay on NCI-H460 lung; greater than 100 µM with OVCAR-3 ovarian. For the same compound, the TGI with RXF 393 renal was greater than 100 µM; in the assay on SK-OV-3 ovarian, 94.4 µM.
Regarding `COc1cc2c(/C=C3/C(=O)Nc4ccccc43)c(Cl)n(Cc3ccccc3[N+](=O)[O-])c2cc1C`, the GI50 was 3.18 µM with COLO 205 colon; 5.66 µM in the assay on EKVX NSCLC; 6.6 µM in the assay with HCT-15 colon; 3.41 µM in the assay on MALME-3M melanoma; 5.51 µM in the assay on NCI-H460 lung; 3.02 µM in the assay on OVCAR-3 ovarian. For the same compound, the GI50 in the assay with RXF 393 renal is 18.9 µM; with SK-OV-3 ovarian it was 14.8 µM. In addition, the TGI in the assay with COLO 205 colon is 15.5 µM; in the assay on EKVX NSCLC, 29.5 µM; in the assay on HCT-15 colon, 26.7 µM; with MALME-3M melanoma it was 13.8 µM; in the assay with NCI-H460 lung it was greater than 100 µM; in the assay with OVCAR-3 ovarian, 15 µM. Also, the TGI with RXF 393 renal turned out to be 96.2 µM; in the assay with SK-OV-3 ovarian, 32.5 µM.
On to `c1ccc(N=C2c3ccccc3C3=NCCCN32)cc1`, for which the TGI with COLO 205 colon, in the assay with EKVX NSCLC, in the assay on HCC-2998 colon, in the assay with HCT-15 colon, with MALME-3M melanoma and with NCI-H460 lung was greater than 100 µM in each case. For the same compound, the TGI in the assay on OVCAR-3 ovarian and with RXF 393 renal was greater than 100 µM throughout.
For the compound `Nc1ccccc1C#C/C=C\C#Cc1ccc(Cl)cc1Cl`, the GI50 was 23.8 µM with COLO 205 colon; 18.8 µM in the assay on EKVX NSCLC; 3.37 µM in the assay on HCC-2998 colon; 1.87 µM in the assay on MALME-3M melanoma; 10.7 µM in the assay on NCI-H460 lung; 5.19 µM in the assay on OVCAR-3 ovarian. Besides, the GI50 with RXF 393 renal is 14.3 µM; in the assay on SK-OV-3 ovarian, 27.8 µM. Besides, the TGI is greater than 100 µM in the assay on COLO 205 colon; 47.9 µM in the assay on EKVX NSCLC; 9.58 µM with HCC-2998 colon; 17.2 µM in the assay with MALME-3M melanoma; 26.5 µM in the assay on NCI-H460 lung; 17.9 µM in the assay on OVCAR-3 ovarian. Besides, the results for the TGI in the assay on RXF 393 renal and with SK-OV-3 ovarian were 40.7 µM and 80.5 µM, respectively.
For the compound `CC(C)(O)C1OCC(C2CCC3(C)C4=CCC5C(C)(C)C(O)CCC5(C)C4CCC23C)CC1O` (stereo not given), the TGI in the assay on COLO 205 colon turned out to be 31.5 µM; with EKVX NSCLC, 32.3 µM; in the assay on HCC-2998 colon, 30.1 µM; with HCT-15 colon, 28 µM; in the assay with MALME-3M melanoma, 39.5 µM; with NCI-H460 lung, 26.1 µM. For the same compound, the TGI in the assay with OVCAR-3 ovarian stood at 40 µM; with SK-OV-3 ovarian, 31.5 µM.
With `Cc1cc(S(=O)(=O)Nc2nnc(-c3ccccc3)c(-c3ccccc3)n2)c(SCc2ccccc2)cc1Cl`, the GI50 with COLO 205 colon is 23.6 µM; with EKVX NSCLC, 5.68 µM; in the assay with HCC-2998 colon, 27.3 µM; in the assay with HCT-15 colon, 20.3 µM; with MALME-3M melanoma, 16.9 µM; in the assay on NCI-H460 lung, 23.8 µM. Further, the GI50 was 17.9 µM with OVCAR-3 ovarian and 19.8 µM in the assay on RXF 393 renal. Also, the TGI came to 48 µM in the assay on COLO 205 colon; 25.2 µM with EKVX NSCLC; 43.8 µM with HCC-2998 colon; 43.3 µM with HCT-15 colon; 38.7 µM with MALME-3M melanoma; 65.7 µM in the assay with NCI-H460 lung. Besides, the TGI with OVCAR-3 ovarian was determined as 34.8 µM; in the assay with RXF 393 renal it was 39.2 µM.
For the compound `COc1ccc2[nH]c(Cl)c(/C=C3/C(=O)N(C)c4ccccc43)c2c1`, the GI50 is 21.7 µM in the assay on COLO 205 colon; greater than 100 µM in the assay on EKVX NSCLC; greater than 100 µM in the assay with HCT-15 colon; greater than 100 µM in the assay on MALME-3M melanoma; greater than 100 µM in the assay on NCI-H460 lung; 55.1 µM in the assay with OVCAR-3 ovarian. Moreover, the GI50 in the assay with RXF 393 renal is greater than 100 µM; in the assay with SK-OV-3 ovarian it was 77.4 µM. In addition, the TGI in the assay with COLO 205 colon, in the assay with EKVX NSCLC, in the assay on HCT-15 colon, with MALME-3M melanoma, in the assay with NCI-H460 lung and in the assay with OVCAR-3 ovarian was greater than 100 µM throughout. Besides, the TGI in the assay with RXF 393 renal and with SK-OV-3 ovarian was greater than 100 µM throughout.
